Test results reported in PMC8119466, “A screen of FDA-approved drugs identifies inhibitors of protein tyrosine phosphatase 4A3 (PTP4A3 or PRL-3)” (Scientific Reports, 2021).

Columns and labels:
[1] = target: T1, recombinant PRL-2 (Homo sapiens, UniProt Q12974); assay: In vitro phosphatase assay (DiFMUP hydrolysis), PRL-2; type: biochemical; settings: for % Phosphatase Activity (compared to DMSO) PRL-2: FDA-approved drug screen;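 for all read-outs here: PRL-2 activity read as DiFMUP hydrolysis after 20 min at room temperature with drug, enzyme first pre-reduced at 4 °C for 20 min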
T1 construct: 6xHis (N, cleaved yes); made in house; host or cells: E. coli One Shot BL21 Star
T1 sequence (Q12974 1-167): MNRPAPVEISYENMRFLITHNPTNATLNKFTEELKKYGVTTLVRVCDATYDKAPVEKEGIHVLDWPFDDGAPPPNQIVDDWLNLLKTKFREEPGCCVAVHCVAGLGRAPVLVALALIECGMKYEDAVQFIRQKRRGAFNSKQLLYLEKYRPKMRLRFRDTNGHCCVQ

[2] = target: T2, recombinant PRL-3 (Homo sapiens, UniProt O75365); assay: In vitro phosphatase assay (DiFMUP hydrolysis), PRL-3; type: biochemical; settings: for % Phosphatase Activity (compared to DMSO) PRL-3: FDA-approved drug screen
T2 construct: 6xHis (N, cleaved yes); made in house; host or cells: E. coli One Shot BL21 Star
T2 sequence (O75365 whole entry): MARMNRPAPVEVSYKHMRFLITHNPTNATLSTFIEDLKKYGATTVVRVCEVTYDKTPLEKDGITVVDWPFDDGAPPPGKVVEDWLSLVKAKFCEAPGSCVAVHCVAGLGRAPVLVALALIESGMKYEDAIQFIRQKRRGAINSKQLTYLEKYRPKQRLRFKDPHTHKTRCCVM

[3] = target: T3, recombinant PRL-1 (Homo sapiens, UniProt Q93096); assay: In vitro phosphatase assay (DiFMUP hydrolysis), PRL-1; type: biochemical; settings: for % Phosphatase Activity (compared to DMSO) PRL-1: FDA-approved drug screen
T3 construct: 6xHis (N, cleaved yes); made in house; host or cells: E. coli One Shot BL21 Star
T3 sequence (Q93096 1-173): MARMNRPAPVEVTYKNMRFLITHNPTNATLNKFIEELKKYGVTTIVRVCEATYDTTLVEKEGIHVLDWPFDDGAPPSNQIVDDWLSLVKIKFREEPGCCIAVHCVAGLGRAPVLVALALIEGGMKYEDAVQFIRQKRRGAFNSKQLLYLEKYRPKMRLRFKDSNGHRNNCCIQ

[4] = test system: HEK293T cells; assay: MTT viability assay; type: cell-based, human; settings: drug doses 1 to 100 µM, 16 h, normalized to 1% DMSO
Method: Cells were seeded into duplicate wells of a 96 well plate at a density of 2 × 10^4 cells per well and allowed to recover for 24 h. Cells were then treated with drug or DMSO at the indicated concentrations for 16 h. Following drug treatment, 10 μL of 5 mg/ml MTT (Sigma, M5655) was added to each well and cells were incubated for 4 h. Finally, media were removed, and the dye was solubilized in 100 μL of 0.1 M HCl in isopropanol. Absorbance was measured at 570 nm and 690 nm with final absorbance measurements as 570–690 nm.

| Substance | % Phosphatase Activity (compared to DMSO) PRL-2 ([1]; compared to DMSO) [%] | % Phosphatase Activity (compared to DMSO) PRL-3 ([2]; compared to DMSO) [%] | % Phosphatase Activity (compared to DMSO) PRL-1 ([3]; compared to DMSO) [%] | further results |
| --- | --- | --- | --- | --- |
| Bacitracin | 94 | 82 | 96 | – |
| Bivalirudin Trifluoroacetate | 81 | 88 | 86 | – |
| Capreomycin Sulfate | 95 | 113 | 95 | – |
| Carbazochrome sodium sulfonate (AC-17) | 68 | 59 | 74 | – |
| Eptifibatide Acetate | 82 | 91 | 88 | – |
| Escin | 73 | 95 | 72 | – |
| GHRP-2 | 102 | 100 | 98 | – |
| Heparin sodium | 72 | 78 | 86 | – |
| Isosorbide | 89 | 69 | 90 | – |
| Nafarelin Acetate | 91 | 91 | 91 | – |
| Oxytocin (Syntocinon) | 68 | 81 | 82 | – |
| S-Ruxolitinib (INCB018424) | 127 | 104 | 113 | – |
| Spiramycin | – | – | – | % Phosphatase Activity (compared to DMSO) PRL-2 ([1]; activity compared to DMSO): 90%; % Phosphatase Activity (compared to DMSO) PRL-3 ([2]; activity compared to DMSO): 68%; % Phosphatase Activity (compared to DMSO) PRL-1 ([3]; activity compared to DMSO): 86% |
| Teneligliptin hydrobromide | – | – | – | % Phosphatase Activity (compared to DMSO) PRL-2 ([1]; activity compared to DMSO): 100%; % Phosphatase Activity (compared to DMSO) PRL-3 ([2]; activity compared to DMSO): 90%; % Phosphatase Activity (compared to DMSO) PRL-1 ([3]; activity compared to DMSO): 95% |
| Tyloxapol | – | – | – | % Phosphatase Activity (compared to DMSO) PRL-2 ([1]; activity compared to DMSO): 83%; % Phosphatase Activity (compared to DMSO) PRL-3 ([2]; activity compared to DMSO): 90%; % Phosphatase Activity (compared to DMSO) PRL-1 ([3]; activity compared to DMSO): 89% |
| Vitamin B12 [reference compound] | – | – | – | % Phosphatase Activity (compared to DMSO) PRL-2 ([1]; activity compared to DMSO): -16%; IC50 ([1]; […] protein, DiFMUP at KM, read-out: Calculated IC50, PRL-2 phosphatase activity): 900 ± 200 nM; % Phosphatase Activity (compared to DMSO) PRL-3 ([2]; activity compared to DMSO): -2%; IC50 ([2]; […] protein, DiFMUP at KM, read-out: Calculated IC50, PRL-3 phosphatase activity): 900 ± 100 nM; viability (MTT) [4]: no effect on the viability; % Phosphatase Activity (compared to DMSO) PRL-1 ([3]; activity compared to DMSO): 2.68%; IC50 ([3]; […] protein, DiFMUP at KM, read-out: Calculated IC50, PRL-1 phosphatase activity): 700 ± 200 nM |
| Vitamin E | – | – | – | % Phosphatase Activity (compared to DMSO) PRL-2 ([1]; activity compared to DMSO): 90%; % Phosphatase Activity (compared to DMSO) PRL-3 ([2]; activity compared to DMSO): 90%; % Phosphatase Activity (compared to DMSO) PRL-1 ([3]; activity compared to DMSO): 108% |
